Biological target: T1, S1PR1 (Homo sapiens, UniProt P21453)
T1 construct: expressed in transfected cells
Test: In vitro agonist activity on S1PR1 (PathHunter cell line, chemiluminescence)
Format: cell-based
Procedure: Test example 1: Evaluating the in vitro agonist activity of the compound of the present disclosure on S1PR1
Experimental purpose: To assess the agonist activity of the compound on S1PR1
I. Cell Treatment • 1. The PathHunter cell line was thawed according to standard procedures. • 2. The cells were seeded in a 384-well plate with a volume of 20 μL, and incubated at 37° C. for an appropriate duration.
II. Agonist • 1. For the agonist evaluation, the cells were co-cultured with the test samples to induce a reaction. • 2. The test stock solution was diluted 5-fold using the buffer. • 3. 5 μL of the 5-fold diluted solution was added to the cells, and incubated at 37° C. for 90 to 180 minutes. The vehicle concentration was maintained at 1%.
III. Signal Detection • 1. Either 12.5 μL or 15 μL of the PathHunter detection reagent (at a 50% v/v ratio) was added each time, followed by a 1-hour incubation at room temperature to allow for detection signal generation. • 2. Chemiluminescence signal detection was conducted using a PerkinElmer Envision™ microplate reader.
IV. Data Analysis • 1. The activity of the compound was analyzed using the CBIS suite for data analysis (ChemInnovation, CA). • 2. Formula for calculation:
% Activity=100%× (Average sample RLU—Average vehicle RLU)/(Average maximum control ligand RLU—Average vehicle RLU)

T1 sequence (P21453 whole entry): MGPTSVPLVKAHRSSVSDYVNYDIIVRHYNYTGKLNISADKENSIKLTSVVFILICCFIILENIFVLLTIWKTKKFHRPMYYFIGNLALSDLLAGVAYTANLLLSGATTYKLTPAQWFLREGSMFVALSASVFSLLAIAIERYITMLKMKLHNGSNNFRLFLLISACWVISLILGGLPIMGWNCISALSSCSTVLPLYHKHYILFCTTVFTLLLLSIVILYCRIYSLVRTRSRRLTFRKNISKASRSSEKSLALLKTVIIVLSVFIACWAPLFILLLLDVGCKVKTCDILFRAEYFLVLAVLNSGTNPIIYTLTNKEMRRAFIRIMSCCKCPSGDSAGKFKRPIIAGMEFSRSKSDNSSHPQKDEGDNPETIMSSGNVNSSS

Emax (% Activity relative to maximum control ligand): 110%
EC50 (incubated at 37° C. for 90 to 180 minutes): 0.657 nM
Structure (SMILES): CC(C)Oc1cc(-c2nc(-c3cccc4c3CCC43CCN(C(C)(C)CO)C3)no2)ccc1C#N (centres unmarked) [Compound 1]
